# Measurements from publication PMC4304211 (Bioorganic & medicinal chemistry, 2013).
# Biological target: STAT3 (Homo sapiens, UniProt P40763)
# Experiment: fluorescence polarization competition, single concentration […]
# Format: binding
# Conditions: read-out: % inhibition at 500 μM
# STAT3, sequence (P40763 2-770): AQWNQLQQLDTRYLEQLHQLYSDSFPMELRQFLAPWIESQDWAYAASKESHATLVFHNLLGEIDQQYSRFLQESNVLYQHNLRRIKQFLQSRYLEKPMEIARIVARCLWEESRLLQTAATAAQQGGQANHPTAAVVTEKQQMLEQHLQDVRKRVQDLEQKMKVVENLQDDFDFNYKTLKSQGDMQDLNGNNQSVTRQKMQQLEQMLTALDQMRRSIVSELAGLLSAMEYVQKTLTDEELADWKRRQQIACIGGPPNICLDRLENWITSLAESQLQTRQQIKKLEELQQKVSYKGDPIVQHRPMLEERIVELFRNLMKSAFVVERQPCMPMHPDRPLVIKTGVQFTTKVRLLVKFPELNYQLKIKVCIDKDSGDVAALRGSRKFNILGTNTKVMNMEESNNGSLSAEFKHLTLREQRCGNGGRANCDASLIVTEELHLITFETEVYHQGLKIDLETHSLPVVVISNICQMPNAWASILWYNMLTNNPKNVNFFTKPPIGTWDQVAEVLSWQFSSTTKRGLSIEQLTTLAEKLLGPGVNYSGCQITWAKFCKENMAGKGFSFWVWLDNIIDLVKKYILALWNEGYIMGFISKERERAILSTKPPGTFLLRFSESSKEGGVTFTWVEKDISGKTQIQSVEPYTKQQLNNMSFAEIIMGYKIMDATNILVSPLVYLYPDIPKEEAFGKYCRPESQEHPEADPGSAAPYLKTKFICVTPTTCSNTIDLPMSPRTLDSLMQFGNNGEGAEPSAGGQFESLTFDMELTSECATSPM
row,inhibition at 500 µM [%],Structure (SMILES)
1,> 50,"O=C1C=C(SCCO)C(=O)c2c(O)cccc21 [PD10, 8-Hydroxy-2-((2-hydroxyethyl)thio)naphthalene-1,4-dione]"
2,> 50,"NS(=O)(=O)c1cccc2c1C(=O)C=C(SCCO)C2=O [PD11, 6-((2-Hydroxyethyl)thio)-5,8-dioxo-5,8-dihydronaphthalene-1-sulfonamide]"
